Data on 17 molecules can be found in patent publication US11767320B2, “Bicyclic dione compounds as inhibitors of KRAS” (INCYTE CORPORATION, priority 2020, dated 2023).

By IC50 is commonly meant the concentration that gives 50% inhibition.

KRAS G12C, sequence (P01116 1-188 isoform P01116-2 G12C): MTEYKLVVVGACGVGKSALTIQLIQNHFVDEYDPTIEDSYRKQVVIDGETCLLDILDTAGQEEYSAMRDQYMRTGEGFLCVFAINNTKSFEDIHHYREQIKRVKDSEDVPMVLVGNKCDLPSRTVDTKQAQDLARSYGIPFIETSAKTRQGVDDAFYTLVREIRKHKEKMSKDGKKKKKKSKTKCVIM

The target of this assay is KRAS G12C (Homo sapiens, UniProt P01116, G12C). Put plainly: GDP-GTP exchange assay (fluorescence based guanine nucleotide exchange, bodipy-GDP for GppNHp, SOS1). The format is biochemical. As to conditions: bodipy-loaded KRAS G12C, 2 hours pre-incubation with inhibitor, read-out: G12C_exchange (KRAS_G12C exchange assay IC50). On the procedure:
The inhibitor potency of the exemplified compounds was determined in a fluorescence based guanine nucleotide exchange assay, which measures the exchange of bodipy-GDP (fluorescently labeled GDP) for GppNHp (Non-hydrolyzable GTP analog) to generate the active state of KRAS in the presence of SOS1 (guanine nucleotide exchange factor). Inhibitors were serially diluted in DMSO and a volume of 0.1 μL was transferred to the wells of a black low volume 384-well plate. 5 μL/well volume of bodipy-loaded KRAS G12C diluted to 5 nM in assay buffer (25 mM Hepes pH 7.5, 50 mM NaCl, 10 mM MgCl2 and 0.01% Brij-35) was added to the plate and pre-incubated with inhibitor for 2 hours at ambient temperature. Appropriate controls (enzyme with no inhibitor or with a G12C inhibitor (AMG-510)) were included on the plate. The exchange was initiated by the addition of a 5 μL/well volume containing 1 mM GppNHp and 300 nM SOS1 in assay buffer. The 10 μL/well reaction concentration of the bodipy-loaded KRAS G12C, GppNHp, and SOS1 were 5-25 nM, 500 uM, and 150 nM, respectively. The reaction plates were incubated at ambient temperature for 2 hours, a time estimated for complete GDP-GTP exchange in the absence of inhibitor. For the KRAS G12D and G12V mutants, similar guanine nucleotide exchange assays were used with 2.5 nM as final concentration for the bodipy loaded KRAS proteins and with 4 hours and 3 hours incubation after adding GppNHp-SOS1 mixture for G12D and G12V, respectively. A cyclic peptide described to selectively bind G12D mutant (Sakamoto et al., BBRC 484.3 (2017), 605-611) or internal compounds with confirmed binding were used as positive controls in the assay plates. Fluorescence intensities were measured on a PheraStar plate reader instrument (BMG Labtech) with excitation at 485 nm and emission at 520 nm.
Either GraphPad prism or XLfit was used to analyze the data. The IC50 values were derived by fitting the data to a four parameter logistic equation producing a sigmoidal dose-response curve with a variable Hill coefficient. Prism equation: Y=Bottom+(Top−Bottom)/(1+10^((Log IC50−X)*Hill slope)); XLfit equation: Y=(A+((B−A)/(1+((X/C)^D)))) where X is the logarithm of inhibitor concentration and Y is the response.
Consider `C=CC(=O)N1CCC(n2c(=O)c(=O)n(-c3c(CC)cccc3CC)c3nc(-c4ccccc4F)c(Cl)cc32)CC1` [Example 1, 1-(1-acryloylpiperidin-4-yl)-7-chloro-4-(2,6-diethylphenyl)-6-(2-fluorophenyl)-1,4-dihydropyrido[2,3-b]pyrazine-2,3-dione], for which the concentration for half-maximal inhibition (IC50) fell in the range of 5000 to 10000 nM. On to `C=CC(=O)N1CC(F)(Cn2c(=O)c(=O)n(-c3c(C)ccnc3C(C)C)c3nc(-c4cccc5ccc(=O)[nH]c45)c(Cl)cc32)C1` [Example 32, 1-((1-acryloyl-3-fluoroazetidin-3-yl)methyl)-7-chloro-4-(2-isopropyl-4-methylpyridin-3-yl)-6-(2-oxo-1,2-dihydroquinolin-8-yl)-1,4-dihydropyrido[2,3-b]pyrazine-2,3-dione], for which the IC50 fell in the range of 100 to 1000 nM.

Consider `C=CC(=O)N1CC(Cn2c(=O)c(=O)n(-c3c(C)ccnc3C(C)C)c3nc(-c4ccccc4F)c(Cl)cc32)(OC)C1` [Example 41, 1-((1-acryloyl-3-methoxyazetidin-3-yl)methyl)-6-(2-fluorophenyl)-7-chloro-4-(2-isopropyl-4-methylpyridin-3-yl)-1,4-dihydropyrido[2,3-b]pyrazine-2,3-dione], for which the IC50 fell in the range of 100 to 1000 nM. Next, `[2H]C([2H])(n1c(=O)c(=O)n(-c2c(C)ccnc2C(C)C)c2nc(-c3cncc(C)c3C)c(Cl)cc21)C1(F)CN(C(=O)C=C)C1` [Example 52, 1-((1-acryloyl-3-fluoroazetidin-3-yl)methyl-d2)-7-chloro-6-(4,5-dimethylpyridin-3-yl)-4-(2-isopropyl-4-methylpyridin-3-yl)-1,4-dihydropyrido[2,3-b]pyrazine-2,3-dione]: 1000 to 5000 nM; `C=CC(=O)N1CC(Cn2c(=O)c(=O)n(-c3c(C(C)C)cccc3C(C)C)c3nc(-c4cccc5ccccc45)c(Cl)cc32)C1` [Example 6, 1-((1-acryloylazetidin-3-yl)methyl)-7-chloro-4-(2,6-diisopropylphenyl)-6-(1-naphthyl)-1,4-dihydropyrido[2,3-b]pyrazine-2,3-dione]: 1000 to 5000 nM; `[2H]C([2H])(n1c(=O)c(=O)n(-c2c(C)ccnc2C(C)C)c2nc(-c3c(O)cc(C)cc3F)c(Cl)cc21)C1(F)CN(C(=O)C=C)C1` [Example 48, 1-((1-acryloyl-3-fluoroazetidin-3-yl)methyl-d2)-7-chloro-6-(2-fluoro-6-hydroxy-4-methylphenyl)-4-(2-isopropyl-4-methylpyridin-3-yl)-1,4-dihydropyrido[2,3-b]pyrazine-2,3-dione]: no more than 100 nM. Next, `[2H]C([2H])(n1c(=O)c(=O)n(-c2c(C)ccnc2C(C)C)c2nc(-c3c(O)cccc3Cl)c(Cl)cc21)C1(F)CN(C(=O)C=C)C1` [Example 49, 1-((1-acryloyl-3-fluoroazetidin-3-yl)methyl-d2)-7-chloro-6-(2-chloro-6-hydroxyphenyl)-4-(2-isopropyl-4-methylpyridin-3-yl)-1,4-dihydropyrido[2,3-b]pyrazine-2,3-dione]: no more than 100 nM. Next, `C=CC(=O)N1CCC(n2c(=O)c(=O)n(-c3c(CC)cccc3CC)c3nc(-c4c(O)cccc4F)c(Cl)cc32)CC1` [Example 2, 1-(1-acryloylpiperidin-4-yl)-7-chloro-4-(2,6-diethylphenyl)-6-(2-fluoro-6-hydroxyphenyl)-1,4-dihydropyrido[2,3-b]pyrazine-2,3-dione]: 1000 to 5000 nM; `[2H]C([2H])(n1c(=O)c(=O)n(-c2c(C)ccnc2C(C)C)c2nc(-c3ccccc3-c3ccccc3)c(Cl)cc21)C1(F)CN(C(=O)C=C)C1` [Example 55, 6-([1,1′-biphenyl]-2-yl)-1-((1-acryloyl-3-fluoroazetidin-3-yl)methyl-d2)-7-chloro-4-(2-isopropyl-4-methylpyridin-3-yl)-1,4-dihydropyrido[2,3-b]pyrazine-2,3-dione]: 100 to 1000 nM. With `C=CC(=O)N1CC(Cn2c(=O)c(=O)n(-c3c(C(C)C)cccc3C(C)C)c3nc(-c4ccccc4F)c(Cl)cc32)C1` [Example 3, 1-((1-acryloylazetidin-3-yl)methyl)-7-chloro-4-(2,6-diisopropylphenyl)-6-(2-fluorophenyl)-1,4-dihydropyrido[2,3-b]pyrazine-2,3-dione], the IC50 lay in the range of 100 to 1000 nM. Turning to `[2H]C([2H])(n1c(=O)c(=O)n(-c2c(C)ccnc2C(C)C)c2nc(-c3c(O)cccc3Cl)c(Cl)cc21)C1(F)CN(C(=O)C(=C)F)C1` [Example 50, 7-chloro-6-(2-chloro-6-hydroxyphenyl)-1-((3-fluoro-1-(2-fluoroacryloyl)azetidin-3-yl)methyl-d2)-4-(2-isopropyl-4-methylpyridin-3-yl)-1,4-dihydropyrido[2,3-b]pyrazine-2,3-dione], the IC50 is no more than 100 nM. As to `C=CC(=O)N1CC(Cn2c(=O)c(=O)n(-c3c(CC)cccc3CC)c3nc(-c4ccccc4F)c(Cl)cc32)C1` [Example 4, 1-((1-acryloylazetidin-3-yl)methyl)-7-chloro-4-(2,6-diethylphenyl)-6-(2-fluorophenyl)-1,4-dihydropyrido[2,3-b]pyrazine-2,3-dione], the IC50 is 100 to 1000 nM.

With `C=CC(=O)N1CC(F)(Cn2c(=O)c(=O)n(-c3c(C)ccnc3C(C)C)c3nc(-c4c(F)ccc(O)c4O)c(Cl)cc32)C1` [Example 26, 1-((1-acryloyl-3-fluoroazetidin-3-yl)methyl)-7-chloro-6-(6-fluoro-2,3-dihydroxyphenyl)-4-(2-isopropyl-4-methylpyridin-3-yl)-1,4-dihydropyrido[2,3-b]pyrazine-2,3-dione], the IC50 lay within 100 to 1000 nM. With `C=CC(=O)N1CC(O)(Cn2c(=O)c(=O)n(-c3c(C)ccnc3C(C)C)c3nc(-c4ccccc4F)c(Cl)cc32)C1` [Example 43, 1-((1-acryloyl-3-hydroxyazetidin-3-yl)methyl)-7-chloro-6-(2-fluorophenyl)-4-(2-isopropyl-4-methylpyridin-3-yl)-1,4-dihydropyrido[2,3-b]pyrazine-2,3-dione], the IC50 is 100 to 1000 nM. As to `[2H]C([2H])(n1c(=O)c(=O)n(-c2c(C)ccnc2C(C)C)c2nc(-c3ccnc(C)c3Cl)c(Cl)cc21)C1(F)CN(C(=O)C=C)C1` [Example 54, 1-((1-acryloyl-3-fluoroazetidin-3-yl)methyl-d2)-7-chloro-6-(3-chloro-2-methylpyridin-4-yl)-4-(2-isopropyl-4-methylpyridin-3-yl)-1,4-dihydropyrido[2,3-b]pyrazine-2,3-dione], the IC50 lay within 100 to 1000 nM.

Regarding `C=CC(=O)N1CC(F)(Cn2c(=O)c(=O)n(-c3c(C)ccnc3C(C)C)c3nc(-c4cccnc4N)c(Cl)cc32)C1` [Example 31, 1-((1-acryloyl-3-fluoroazetidin-3-yl)methyl)-6-(2-aminopyridin-3-yl)-7-chloro-4-(2-isopropyl-4-methylpyridin-3-yl)-1,4-dihydropyrido[2,3-b]pyrazine-2,3-dione], the IC50 fell in the range of 100 to 1000 nM.

`C=CC(=O)N1CC(O)(Cn2c(=O)c(=O)n(-c3c(C)ccnc3C(C)C)c3nc(-c4c(O)cc(C)cc4F)c(Cl)cc32)C1` [Example 46, 1-((1-acryloyl-3-hydroxyazetidin-3-yl)methyl)-7-chloro-6-(2-fluoro-6-hydroxy-4-methylphenyl)-4-(2-isopropyl-4-methylpyridin-3-yl)-1,4-dihydropyrido[2,3-b]pyrazine-2,3-dione]: the IC50 was in the range of 100 to 1000 nM.
